Measurements taken from patent US3974140A, “Ureidoacetamido-penicillins” (Bayer Aktiengesellschaft, priority 1970, dated 1976).

How the values were obtained:
Assay in all cases: MIC, liquid medium test tube series dilution test
E. coli 14 = type: cell-based; settings: E. coli 14, 24 hours, 37°C
In short: (§1)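 Values are minimum inhibitory concentrations in units/ml, taken as the first clear (non-turbid) tube of a dilution series. Tubes of complete liquid medium were incubated 24 h at 37°C.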

E. coli 183/58 = type: cell-based; settings: E. coli 183/58, 24 hours, 37°C
In short: as §1

E. coli A 261 = type: cell-based; settings: E. coli A 261, 24 hours, 37°C
In short: as §1

E. coli C 165 = type: cell-based; settings: E. coli C 165, 24 hours, 37°C
In short: as §1

Klebsiella K 10 = type: cell-based; settings: Klebsiella K 10, 24 hours, 37°C
In short: as §1

Psdm. aerug. Bonn = type: cell-based, Pseudomonas aerug.; settings: 24 hours, 37°C
In short: as §1

Psdm. aerug. Walter = type: cell-based, Pseudomonas aerug.; settings: 24 hours, 37°C
In short: as §1

Staph. aureus 133 = type: cell-based, Staphylococcus aureus; settings: Staph. aureus 133, 24 hours, 37°C
In short: as §1

Staph. aureus 1777 E = type: cell-based, Staphylococcus aureus; settings: 24 hours, 37°C
In short: as §1

Klebsiella 63 = type: cell-based; settings: Klebsiella 63, 24 hours, 37°C
In short: as §1

Proteus vulg. 1017 = type: cell-based, Proteus vulgaris; settings: Proteus vulg. 1017, 24 hours, 37°C
In short: as §1

[1] = tested on: Streptoc. faec. ATCC 9790; type: cell-based; settings: Strep. faec. (Enterococcus) ATCC 9790, 24 hours, 37°C
In short: as §1

Proteus vulg. 3400 = type: cell-based, Proteus vulgaris; settings: Proteus vulg. 3400, 24 hours, 37°C
In short: as §1

| SMILES | MIC (E. coli 14) | MIC (E. coli 183/58) | MIC (E. coli A 261) | MIC (E. coli C 165) | MIC (Klebsiella K 10) | MIC (Psdm. aerug. Bonn) | MIC (Psdm. aerug. Walter) | MIC (Staph. aureus 133) | MIC (Staph. aureus 1777 E) | MIC (Klebsiella 63) | MIC (Proteus vulg. 1017) | MIC [1] | MIC (Proteus vulg. 3400) |
| --- | --- | --- | --- | --- | --- | --- | --- | --- | --- | --- | --- | --- | --- |
| CC1(C)S[C@@H]2[C@H](NC(=O)[C@H](NC(=O)N3CCNC3=O)c3ccccc3)C(=O)N2[C@H]1C(=O)O [Example 52, D(-)-α-[(Imidazolidin-2-on-1-yl)-carbonylamino]-benzylpenicillin] | 3,12 units/ml | 6,25 units/ml | > 400 units/ml | 12,5 units/ml | 100 units/ml | 12,5 units/ml | 12,5 units/ml | < 0,78 units/ml | 200 units/ml |  |  |  |  |
| CCC(=O)N(C)C(=O)N[C@@H](C(=O)N[C@@H]1C(=O)N2[C@@H]1SC(C)(C)[C@@H]2C(=O)O)c1ccccc1 [Example 113, Sodium D(-)-α-(3-propionyl-3-methyl-ureido)-benzylpenicillin] |  |  |  | 0.8-4 units/ml |  |  | 4-20 units/ml | 0.8 units/ml | 100-500 units/ml | 100-500 units/ml | 4-20 units/ml |  |  |
| CCN(C(C)=O)C(=O)N[C@@H](C(=O)N[C@@H]1C(=O)N2[C@@H]1SC(C)(C)[C@@H]2C(=O)O)c1ccccc1 [Example 114, Sodium D(-)-α-(3-acetyl-3-ethyl-ureido)-benzylpenicillin] |  |  |  | 4-20 units/ml |  |  | 4-20 units/ml | 0.8 units/ml | 100-500 units/ml | 100-500 units/ml | 20-100 units/ml |  |  |
| CCCN(C(C)=O)C(=O)N[C@@H](C(=O)N[C@@H]1C(=O)N2[C@@H]1SC(C)(C)[C@@H]2C(=O)O)c1ccccc1 [Example 115, Sodium D(-)-α-(3-acetyl-3-n-propyl-ureido)-benzylpenicillin] |  |  |  | 20-100 units/ml |  |  | 20-100 units/ml | 0.8 units/ml | 100-500 units/ml | 100-500 units/ml | 20-100 units/ml |  |  |
| CC(C)C(=O)N(C)C(=O)N[C@@H](C(=O)N[C@@H]1C(=O)N2[C@@H]1SC(C)(C)[C@@H]2C(=O)O)c1ccccc1 [Example 116, Sodium D(-)-α-(3-i-butyryl-3-methyl-ureido)-benzylpenicillin] |  |  |  | 4-20 units/ml |  |  | ~20 units/ml | 0.8 units/ml | 100-500 units/ml | 20-100 units/ml | 4-20 units/ml |  |  |
| CCCCCCCCCCCCCCCCCC(=O)N(C)C(=O)N[C@@H](C(=O)N[C@@H]1C(=O)N2[C@@H]1SC(C)(C)[C@@H]2C(=O)O)c1ccccc1 [Example 71, Sodium D(-)-α-(3-stearinoyl-3-methyl-ureido)-benzylpenicillin] | > 400 units/ml | > 400 units/ml | > 400 units/ml | > 400 units/ml | > 400 units/ml | > 400 units/ml | 400 units/ml | 200 units/ml |  | > 400 units/ml | > 400 units/ml | > 400 units/ml | > 400 units/ml |
| CC(=O)N(C(=O)N[C@@H](C(=O)N[C@@H]1C(=O)N2[C@@H]1SC(C)(C)[C@@H]2C(=O)O)c1ccccc1)c1ccccc1 [Example 130, Sodium D(-)-α-(3-acetyl-3-phenyl-ureido)-benzylpenicillin] | 12.5 units/ml | 100 units/ml | > 400 units/ml | 100 units/ml | 25 units/ml | 200 units/ml | 200 units/ml | < 0.8 units/ml |  | 50 units/ml | 200 units/ml | 50 units/ml | 400 units/ml |
| C=CCN(C(C)=O)C(=O)NC(C(=O)N[C@@H]1C(=O)N2[C@@H]1SC(C)(C)[C@@H]2C(=O)O)c1cccs1 (stereo partly drawn) [Example 17, Sodium D,L-α-(3-acetyl-3-allyl-ureido)-2-thienylmethylpenicillin] | 4-20 units/ml | 20-100 units/ml | > 500 units/ml | 20-100 units/ml | 20-100 units/ml | 100-500 units/ml | 100-500 units/ml | < 0.8 units/ml |  | 20-100 units/ml | > 500 units/ml | 20-100 units/ml | 100-500 units/ml |
| C=CCN(C(=O)N[C@@H](C(=O)N[C@@H]1C(=O)N2[C@@H]1SC(C)(C)[C@@H]2C(=O)O)c1ccccc1)C(=O)c1ccccc1 [Example 90, Sodium D(-)-α-(3-benzoyl-3-allyl-ureido)-benzylpenicillin] | 6.25 units/ml | 12.5 units/ml | 400 units/ml | 12.5 units/ml | 50 units/ml | 25 units/ml | 50 units/ml |  | 50 units/ml | 25 units/ml | 12.5 units/ml | 100 units/ml | 25 units/ml |
| CCCCCCCCCCCCCCCCN(C(C)=O)C(=O)N[C@@H](C(=O)N[C@@H]1C(=O)N2[C@@H]1SC(C)(C)[C@@H]2C(=O)O)c1ccccc1 [Example 74, Sodium D(-)-α-(3-acetyl-3-hexadecyl-ureido)-benzylpenicillin] | 100 units/ml | > 400 units/ml | > 400 units/ml | > 400 units/ml | > 400 units/ml | > 400 units/ml | > 400 units/ml | 25 units/ml |  | > 400 units/ml | > 400 units/ml | > 400 units/ml | > 400 units/ml |
| CN(C(=O)NC(C(=O)N[C@@H]1C(=O)N2[C@@H]1SC(C)(C)[C@@H]2C(=O)O)c1c(Cl)cccc1Cl)C(=O)c1ccccc1 (stereo partly drawn) [Example 32, Sodium α-(3-benzoyl-3-methyl-ureido)-2,6-dichlorobenzyl-penicillin] | approx. 20 units/ml | 20-100 units/ml | > 500 units/ml | 20-100 units/ml | 100-500 units/ml | 100-500 units/ml | 100-500 units/ml | ~0.8 units/ml |  | approx. 100 units/ml | approx. 100 units/ml | 100-500 units/ml | 100-500 units/ml |
| CC1(C)S[C@@H]2[C@H](NC(=O)[C@H](NC(=O)N(CCCl)C(=O)CCC(Cl)(Cl)Cl)c3ccccc3)C(=O)N2[C@H]1C(=O)O [Example 72, Sodium D(-)-α-(3-γ-trichlorobutyryl-3-β-chloroethyl-ureido)-benzylpenicillin] | 6.25 units/ml | 12.5 units/ml | 400 units/ml | 25 units/ml | 100 units/ml | 50 units/ml | 400 units/ml | < 0.78 units/ml |  | 50 units/ml | 50 units/ml | 100 units/ml | 200 units/ml |
